Measured values taken from patent US12162895B2, “DNA polymerase theta inhibitor for treatment of cancer” (Breakpoint Therapeutics GmbH, priority 2023, dated 2024).

Target: T1, Polθ (Homo sapiens, UniProt O75417)
T1 construct: a truncated Pole protein (Pole-Hel containing the helicase domain (67-894))
Assay: Polθ ATPase assay (Biological Assay 1, ADP-Glo luminescence)
Type: biochemical
Settings: truncated Polθ protein containing the helicase domain (67-894), ssDNA oligo, ATP, in vitro
Procedure: The Pole ATPase assay was used to evaluate inhibitors of Pole ATPase activity, in vitro. Experiments were performed using a truncated Pole protein (Pole-Hel containing the helicase domain (67-894), ATP and a DNA single strand Oligo (5′-CTGTCCTGCATGATG-3′) in the Pole assay buffer (20 mM Tris-HCl (pH 8.8), MgCl2 5 mM, tween20 0.01%, NP40 0.01%, BSA 0.01%, DTT 1 mM). 2 μL of assay buffer containing Pole-Hel protein (0.5 nM) and DNA substrate (500 nM) was transferred into assay ready plates, containing 0.04 μL of compounds diluted in DMSO. After a 30 minutes incubation at 23° C. in the dark, the reaction was triggered by adding 2 μL of ATP (60 μM), in assay buffer. After 60 minutes at 23° C., 4 μl of ADP-Glo™ Reagent (Glo 1) was added followed by 40 minutes of incubation, then 8 μl of ADP-Glo™ kinase Detection Reagent (Glo 2) followed by 60 minutes of incubation at 23° C. Luminescence was then measured using Tecan F200 infinite plate reader. Raw data were analysed using GeneData to generate IC50 values.
The Pole ATPase assay described in Biological Assay 1 above was used to evaluate inhibitors of Pole ATPase activity for the compounds described in the Experimental Part B above, in vitro.

T1 sequence (O75417 67-894): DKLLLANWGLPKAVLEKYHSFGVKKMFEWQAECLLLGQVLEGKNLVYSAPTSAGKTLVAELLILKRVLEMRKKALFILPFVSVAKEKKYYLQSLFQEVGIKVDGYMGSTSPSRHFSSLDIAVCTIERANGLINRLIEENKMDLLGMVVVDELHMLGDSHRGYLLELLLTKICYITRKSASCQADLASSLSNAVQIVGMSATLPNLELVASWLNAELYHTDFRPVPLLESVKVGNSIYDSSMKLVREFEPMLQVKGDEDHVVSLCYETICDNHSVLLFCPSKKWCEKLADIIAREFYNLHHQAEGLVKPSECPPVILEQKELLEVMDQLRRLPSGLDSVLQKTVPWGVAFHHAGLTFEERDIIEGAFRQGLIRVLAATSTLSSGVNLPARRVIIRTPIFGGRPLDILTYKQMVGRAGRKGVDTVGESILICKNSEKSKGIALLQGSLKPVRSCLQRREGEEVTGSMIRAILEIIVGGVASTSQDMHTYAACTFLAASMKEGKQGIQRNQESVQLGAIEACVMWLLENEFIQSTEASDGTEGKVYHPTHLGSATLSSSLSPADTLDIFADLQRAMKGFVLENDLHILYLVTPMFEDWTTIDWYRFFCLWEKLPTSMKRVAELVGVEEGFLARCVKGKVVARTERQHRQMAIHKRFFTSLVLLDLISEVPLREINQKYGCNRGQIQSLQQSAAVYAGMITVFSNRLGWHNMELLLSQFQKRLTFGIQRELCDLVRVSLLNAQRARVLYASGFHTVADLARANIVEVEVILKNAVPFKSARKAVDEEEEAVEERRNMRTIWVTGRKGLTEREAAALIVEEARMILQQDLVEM

5′-methoxy-2′,6-dimethyl-N-[5-(morpholin-4-yl)-[1,3]thiazolo[5,4-d]pyrimidin-2-yl]-[4,4′-bipyridine]-3-carboxamide [Example 92]
IC50: < 0.1 µM
